In PubChem BioAssay (NCI):
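In this assay, cells in 96-well plates receive the compound at five concentrations for 48 hours. Endpoints are linearly interpolated between the surrounding concentrations. At the GI50, growth is halved. The concentration for full growth arrest is given as TGI.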

What was measured:
Test in all cases: NCI-60 cell line screen, 48 h
[1] = test system: UACC-257 melanoma
[2] = test system: OVCAR-8 ovarian
[3] = test system: BT-549 breast
[4] = test system: SK-OV-3 ovarian
[5] = test system: SK-MEL-2 melanoma
[6] = test system: SNB-75 CNS
[7] = test system: MDA-MB-231 breast
[8] = test system: MALME-3M melanoma
[9] = test system: A498 renal
[10] = test system: LOX IMVI melanoma

Row | Structure (SMILES) | TGI [1] [µM] | TGI [2] [µM] | TGI [3] [µM] | TGI [4] [µM] | TGI [5] [µM] | TGI [6] [µM] | TGI [7] [µM] | TGI [8] [µM] | TGI [9] [µM] | TGI [10] [µM] | GI50 [1] [µM] | GI50 [2] [µM] | GI50 [3] [µM] | GI50 [4] [µM] | GI50 [5] [µM] | GI50 [6] [µM] | GI50 [7] [µM] | GI50 [8] [µM] | GI50 [9] [µM] | GI50 [10] [µM]
1 | CC(=O)OCC1OC(n2c(N)c(C#N)c(-c3ccccc3)c(C#N)c2=S)C(OC(C)=O)C(OC(C)=O)C1OC(C)=O (stereo not drawn) | > 100 | > 100 | > 100 | > 100 | > 100 | 30 | > 100 | > 100 | > 100 | > 100 |  |  |  |  |  |  |  |  |  | 
2 | CC(=O)Nc1ccc(CNc2cc(=O)[nH]c(=O)[nH]2)cc1 | > 100 | > 100 | > 100 | > 100 | > 100 | > 100 | > 100 | > 100 |  | > 100 |  |  |  |  |  |  |  |  |  | 
3 | CCOc1ccc2c(c1)/C(=C(\C(Cl)=C(Cl)Cl)[N+](=O)[O-])N2 | > 100 | > 100 | > 100 | > 100 | > 100 | > 100 | > 100 | > 100 | > 100 |  |  |  |  |  |  |  |  |  |  | 
4 | Cc1cc(N(CCC#N)CCC#N)ccc1/C(N=Nc1cccc([N+](=O)[O-])c1)=N/NC(=O)c1cc(Cl)ccc1O | 94.1 | > 100 | 92.7 | > 100 | 63.3 | 82.6 | 53.5 | > 100 | 49.2 | 49.3 |  |  |  |  |  |  |  |  |  | 
5 | O=C1OCC(C#Cc2ccccc2)=C1Cl | 40.2 | > 100 | 33.4 | > 100 | 40.7 | 46.2 | 6.39 | 36.5 | 38 | 14.9 | 4.34 | 3.45 | 7.87 | 37.7 | 8.61 | 19.8 | 1.19 | 13.4 | 12 | 4.31
6 | c1ccc(C2SCC3=Nc4ccccc4CN32)cc1 (stereo not drawn) | > 100 | 57.3 | > 100 | > 100 |  | > 100 | > 100 |  | > 100 | > 100 |  |  |  |  |  |  |  |  |  | 
7 | O=C(O)CSc1cc(-c2ccccc2)nc2ccccc12 | > 100 | > 100 | > 100 |  | > 100 |  | > 100 | > 100 | 67 | > 100 |  |  |  |  |  |  |  |  |  | 
8 | OCCN(CCO)c1ccc2c(C(F)(F)F)cc(C(F)(F)F)nc2n1 | > 100 | > 100 | > 100 | > 100 | > 100 | > 100 | > 100 | > 100 | > 100 | > 100 |  |  |  |  |  |  |  |  |  | 
9 | Cc1nc2c(o1)C(=O)c1ccccc1/C2=N/c1ccccn1 | 26.9 | 31.1 | 32.2 | > 100 | 43.6 | 20.9 | 69.3 | 25 | 30.7 | 39.9 |  |  |  |  |  |  |  |  |  | 
10 | CCOP(=O)(Nc1ccc(-c2ccccc2)cc1)OCC | > 100 | > 100 | > 100 | > 100 | > 100 | > 100 | > 100 | > 100 | > 100 |  |  |  |  |  |  |  |  |  |  | 
